Assay results: patent US5688654A, “GABA a receptor subtypes and methods for screening drug compounds using imidazoquinoxalines and pyrrolopyrimidines to bind to GABAa receptor subtypes” (Neurogen Corporation, priority 1994, dated 1997)

Assays:
GABAa receptor subtype = test: Drug screening assay: displacement of 3H-Compound 1 from rat cortical tissue (novel GABAa receptor subtype); format: binding; conditions: Table I; 0.5 nM 3H-Compound 1, rat cortical tissue, 20 min at 4° C., buffer with 1 uM Ro 15-1788 and 10 uM muscimol; Ki by Cheng Prusoff
Method: The methods for screening drug compounds of the invention using the novel GABAa receptor are illustrated by the following assays for GABAa receptor subtype activity.
Assays were carried out using the tissue preparation described in Thomas and Tallman (J. Bio. Chem. 156: 9838-9842, 1983, J. Neurosci 3: 433-440, 1983). Rat cortical tissue was dissected and homogenized in 25 volumes (w/v) of 0.05M Tris HCl buffer (pH 7.4 at 4° C.). The tissue homogenate was centrifuged in the cold (4°) at 20,000×g for 20'. The supernatant was decanted and the pellet was rehomogenized in the same volume of buffer and again centrifuged at 20,000×g. The supernatant was decanted and the pellet was frozen at -20° C. overnight. The pellet was then thawed and rehomogenized in 25 volume (original wt/vol) of buffer and the procedure was carried out twice. The pellet was finally resuspended in 50 volumes (w/vol of 0.05M Tris HCl buffer containing 1 uM Ro 15-1788. 1 uM sodium ascorbate and 10 uM muscimol (pH 7.4 at 4° C.).
Incubation mixtures contained 400 μl of tissue homogenate. 5μl of 100 nM ligand in above buffer [final ligand concentration was 0.5 nM ^3 H-Compound 1 (specific activity 67 Ci/mmol)], drug or blocker and buffer to a total volume of 1 ml. Incubations were carried for 20 min at 4° C. then were rapidly filtered through GFB filters to separate free and bound ligand. Filters were washed twice with fresh 0.05M Tris HCl buffer (pH 7.4 at 4° C.) and counted in a liquid scintillation counter. 10 μM Compound 3 was added to some tubes to determine nonspecific binding. Data were collected in triplicate determinations, averaged and % inhibition of total specific binding was calculated. Total Specific Binding=Total-Nonspecific. Typically the specific binding represented about 75 to 85% of total binding. In some cases, the amounts of unlabeled drugs was varied and total displacement curves of binding were carried out. Data were convened to a form suitable for the calculation of IC50 and Hill Coefficient (nH). These IC 50's were convened to Ki's using the Cheng Prusoff equation (Cheng and Prussoff, 1973, Biochem. Pharmacol. 22: 3099.).

[1] = tested on: benzodiazepine binding site; conditions: Tallman et al., 1978; cited from earlier work
known GABAa receptors = conditions: Table II, no method given; cited from earlier work

SMILES	Ki (GABAa receptor subtype) [nM]	effect on benzodiazepine binding / on its enhancement by GABA agonists (in words) [1]	Ki (known GABAa receptors) [nM]
CCOc1ccc(-n2c(=O)c3c[nH]c4ccccc4n-3c2=O)cc1 [Compound 1, 2-(4-Ethoxyphenyl)imidazo[1,5.a]quinoxaline-1,3(2H,5H)-dione]	0.5	–	–
Cc1nnc2n1-c1ccc(Cl)cc1C(c1ccccc1)=NC2 [Alprazelam]	8000	–	–
COc1cccc(-c2ncc3[nH]c4c(c3n2)CCCC4)c1 [Compound 7, 2-(3-Methoxyphenyl)-6,7,8,9-tetrahydro-5H-indolo[3.2-d]-pyrimidine]	50	–	–
NCCCC(=O)O [GABA, γ-Aminobutyric acid]	–	enhance the binding of benzodiazepines	–
COc1ccc(F)c(-c2ncc3[nH]c4c(c3n2)CCCC4)c1 [Compound 2, 2-(2-Fluoro-5-methoxyphenyl)-6,7,g,9-tetrahydro-5H-indolo[3,2-d]-pyrimidine]	3.9	–	–
COc1cccc(-n2c(=O)c3c[nH]c4ccccc4n-3c2=O)c1 [Compound 6, 2-(3-Methoxyphenyl)imidazo[1,5.a]quinoxaline-1,3(2H,5. H)-dione]	0.55	–	–
CN1CCc2cc3c(cc2C1C1OC(=O)c2c1ccc1c2OCO1)OCO3 (single isomer, unassigned; (-)) [(-) bicuculline]	–	much less active	–
CCOC(=O)c1ncn2c1CN(C)C(=O)c1cc(F)ccc1-2 [Flumazenil]	7500	–	1
CCCOc1ccc(-n2c(=O)c3c[nH]c4ccccc4n-3c2=O)cc1 [Compound 3, 2-(4-Propyloxyphenyl)imidazo[1,5,a]quinoxaline-1,3(2H,5H)-dione]	0.9	–	–
CC(C)(C)OC(=O)c1ncn2c1[C@@H]1CCCN1C(=O)c1c(Br)cccc1-2 [Bretazenil]	15000	–	1
CN1CCc2cc3c(cc2C1C1OC(=O)c2c1ccc1c2OCO1)OCO3 (single isomer, unassigned; (+)) [(+) bicuculline]	–	blocked	–
CCOc1ccc(-n2c(=O)c3cn(C)c4ccccc4n-3c2=O)cc1 [Compound 5, 2-(4-Ethoxyphenyl)-5-methyl-imidazo[1,5,a]quinoxaline-1,3(2H,5H)-dione]	6	–	–
CN1C(=O)CN=C(c2ccccc2)c2cc(Cl)ccc21 [Diazepam]	5000	–	6
CCOc1ccc(-n2c(=O)c3c[nH]c4cc(C)ccc4n-3c2=O)cc1 [Compound 4, 2-(4-Ethoxyphenyl)-7-methyl-imidazo[1,5,a]quinoxaline-1,3(2H,5H)-dione]	0.5	–	–
Cc1ccc(-c2nc3ccc(C)cn3c2CC(=O)N(C)C)cc1 [Zolpidem]	2200	–	20
